Literature values in US20240173233A1, “COSMETIC SACHET FOR REDUCING AGE-RELATED SYMPTOMS IN HUMAN SKIN” (Bloo Pharmapeutica Inc., priority 2022, published 2024).

Tests used:
elastin and collagen 2A1 = settings: MB treatment of skin
skin fibroblast = settings: in comparison with other widely used general and mitochondrial-targeting antioxidants
[1] = test system: cultured human skin fibroblasts derived from healthy donors and from patients with progeria

CN(C)c1ccc2nc3ccc(=[N+](C)C)cc-3sc2c1.[Cl-] [methylene blue, [7-(dimethylamino)phenothiazine-3-ylidene]-dimethylazanium chloride]
expression of extracellular matrix proteins (elastin and collagen 2A1): upregulation of elastin and collagen 2A1
dermis thickness (3D skin model): increased skin hydration and dermis thickness
skin hydration (3D skin model): increased skin hydration
skin viability (3D skin model): improved skin viability
wound healing (3D skin model): promoted wound healing
delaying cellular senescence (skin fibroblast): more effective
stimulating skin fibroblast proliferation (skin fibroblast): more effective
reactive oxygen species (ROS) scavenging efficacy [1]: potent reactive oxygen species (ROS) scavenging efficacy
